# Test results as given in patent EP0437846A2, “Solutions of decaplanin salts, their preparation and their use, as well as crystalline decaplanin salts, their preparation and their use” (HOECHST AKTIENGESELLSCHAFT, priority 1990, dated 1991).
# Counter-ions that a name gives are not always drawn. Like-named read-outs stand apart in the source and are kept apart here.
# Legend:
# [1] = thermal stability of aqueous solution (80 °C, 20 h); type: physicochemical
# Description: Erfindungsgegenstand ist demzufolge eine wäßrige Lösung eines Decaplaninsalzes, ausgewählt aus der Gruppe der Decaplaninacetate, Decaplaninphosphate und Decaplanintartrate. Aus dieser Gruppe sind die Decaplaninacetate besonders bevorzugt. Die erfindungsgemäßen wässrigen Lösungen haben wie bereits erläutert den Vorteil, daß in ihnen das jeweilige Salz in relativ hoher Konzentration vorliegen kann, ohne daß das betreffende Salz ausfällt. […] So zeigt sich z.B. in einer 0,2 %igen wäßrigen Decaplaninmonoacetatlösung bei einer 20 stündigen Temperaturbelastung von 80 °C nur ein Wirkstoffverlust von weniger als 5 %; Vancomycinhydrochlorid hingegen weist bei einer analogen Behandlung nur noch einen Gehalt von etwa 25 % Vancomycinhydrochlorid auf. Die Instabilität des Vancomycins resultiert aus seiner Umwandlung zum sogenannten CDP (vgl. F. Sztaricskai und R. Bognar, Chemistry of the Vancomycin Group of Antibiotics. In:Recent Developments in the Chemistry of Natural Carbon Compounds, Vol. 10, PP 93-201, 1984, Akademiai Kiado, Budapest, 1983). Es ist besonders überraschend, daß die erfindungsgemäßen Decaplaninsalze diese Umwandlung nicht in diesem Ausmaß erleiden. Weiterhin besonders überraschend ist die bereits erwähnte, im Gegensatz zum Vancomycinhydrochlorid stehende gute lokale Verträglichkeit der erfindungsgemäßen wäßrigen Decaplaninsalzlösungen, die ohne besondere Vorsichtsmaßnahmen - wie langsame Injektion - injiziert werden können und auch subcutan verabreichbar sind.
# [2] = general knowledge on the commercial form, cited from earlier work
# [3] = commercial hydrochloride form, result in words; cited from earlier work
# isoelectric point = type: physicochemical
# [4] = toxicity and tolerability on injection; conditions: result in words; for Verträglichkeit: injection
# solubility in water = conditions: result in words
# [5] = water
# [6] = viscosity / gelling of aqueous salt solutions; type: physicochemical; conditions: result in words
# Procedure: 10,2 g des nach Beispiel 3 gewonnenen Gefriertrocknungsproduktes werden in 90 ml Wasser gelöst. Sie ergeben 100 ml einer Flüssigkeit mit einer Viskosität von weniger als 3 Centipoise (cP) bei 20 °C.
# 10 g des nach Beispiel 3 gewonnenen Produktes werden in 40 ml Wasser aufgenommen und durch Zugabe von […] Eisessig eine Decaplanindiacetatlösung hergestellt. Die Lösung hat einen pH-Wert von 4,2. Ihre Viskosität beträgt weniger als 3 cP bei 20 °C.
# [7] = in vivo
compound,measurement,setting,value
CN[C@H](CC(C)C)C(=O)N[C@H]1C(=O)N[C@@H](CC(N)=O)C(=O)N[C@H]2C(=O)N[C@H]3C(=O)N[C@H](C(=O)N[C@H](C(=O)O)c4cc(O)cc(O)c4-c4cc3ccc4O)[C@H](O)c3ccc(c(Cl)c3)Oc3cc2cc(c3O[C@@H]2O[C@H](CO)[C@@H](O)[C@H](O)[C@H]2O[C@H]2C[C@](C)(N)[C@H](O)[C@H](C)O2)Oc2ccc(cc2Cl)[C@H]1O [Vancomycinhydrochlorid],remaining at 20 h,"[1]; water, remaining content after analogous treatment (20 h, 80 °C), read-out: Gehalt",~25%
same,Nebenwirkungen,[2],"lokale Nekrosen, das ""red man-Syndrom"" sowie Oto- und Nephrotoxizität"
same,Verträglichkeit,[2]; injection,schlecht verträglich
same,Löslichkeit,[3],relativ wenig löslichen Form
Decaplanin,isoelektrischer Punkt,isoelectric point,"8,1 pH"
same,Verträglichkeit,[4],gute Verträglichkeit
same,Toxizität,[4],sehr geringe Toxizität
same,Löslichkeit in Wasser,solubility in water,relativ wenig wasserlöslich
Decaplaninacetat,Stabilität der Lösung,[1],stabil
same,Löslichkeit (Konzentration),[5],ca. 20 Gew.-%
same,Gelieren / Viskosität der wäßrigen Lösung,[6],dünnflüssig
same,Toxizität,[7],sehr geringe Toxizität
Decaplaninmonoacetat,Wirkstoffverlust,"[1]; water, 20 h",< 5%
Decaplaninphosphate,Toxizität,[4],sehr geringe Toxizität
same,Verträglichkeit,[7],gute Verträglichkeit
Decaplanintartrate,Verträglichkeit,[4],gute Verträglichkeit
same,Toxizität,[4],sehr geringe Toxizität
same,Löslichkeit in Wasser,solubility in water,gutes Löslichkeitsverhalten
Hydrochlorid,Gelieren / Viskosität der wäßrigen Lösung,[6],zähflüssig
same,Löslichkeit in Wasser,solubility in water,nicht ausreichend löslich
